PubChem BioAssay (NCI)
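How tested: cells in 96-well plates exposed to compound for 48 hours at five concentrations. GI50 is the concentration that inhibits growth by half. TGI is the concentration that stops growth completely.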

Key:
Assay in all cases: DTP human tumour cell line panel, 48 h
[1] = test system: 786-0 renal
[2] = test system: UACC-257 melanoma
[3] = test system: NCI-H226 lung
[4] = test system: T-47D breast
[5] = test system: UACC-62 melanoma
[6] = test system: SK-OV-3 ovarian
[7] = test system: SW-620 colon
[8] = test system: MOLT-4 leukemia
[9] = test system: SNB-19 CNS
[10] = test system: SF-268 CNS
[11] = test system: MDA-N
[12] = test system: HL-60(TB) leukemia

CCC1OC2C(CC=C(C)C)=C3OC(C)(O)C(C)(CC)C(=O)C3=C3OC(=O)C=C1C32 (configuration not stated)
TGI [1]: > 100 µM | TGI [2]: 96.2 µM | TGI [3]: > 100 µM | TGI [4]: > 100 µM | TGI [5]: 83.4 µM | TGI [6]: > 100 µM | TGI [7]: > 100 µM | TGI [8]: > 100 µM | TGI [9]: > 100 µM | TGI [10]: > 100 µM

COc1c(C)c(C/C=C(\C)CCCCO)c(OC)c2ccccc12
TGI [1]: > 100 µM | TGI [2]: > 100 µM | TGI [11]: > 100 µM | TGI [5]: > 100 µM | TGI [6]: > 100 µM | TGI [7]: > 100 µM | TGI [8]: 43.1 µM | TGI [9]: > 100 µM | TGI [10]: > 100 µM

O=c1cc(NNc2cccc(F)c2)[nH]c(=S)[nH]1
TGI [1]: > 100 µM | TGI [2]: > 100 µM | TGI [3]: > 100 µM | TGI [11]: > 100 µM | TGI [12]: > 100 µM | TGI [7]: > 100 µM | TGI [9]: > 100 µM | TGI [10]: > 100 µM

CCOC(=O)[C@@]12NN=N[C@@H]1[C@H]1CO[C@H](c3ccccc3)N1C2=O
TGI [1]: 30.3 µM | TGI [2]: 19.7 µM | TGI [11]: 25.7 µM | TGI [12]: > 100 µM | TGI [4]: 36 µM | TGI [5]: 21.2 µM | TGI [6]: 33.6 µM | TGI [7]: 25.5 µM | TGI [8]: > 100 µM | TGI [9]: 25 µM | TGI [10]: 30.8 µM

Cc1ccc(O)cc1 (tested in a mixture with another compound)
TGI [1]: > 100 µM | TGI [2]: > 100 µM | TGI [3]: > 100 µM | TGI [12]: > 100 µM | TGI [4]: > 100 µM | TGI [5]: > 100 µM | TGI [6]: > 100 µM | TGI [7]: > 100 µM | TGI [8]: > 100 µM | TGI [9]: > 100 µM | TGI [10]: > 100 µM

O=C(c1cccnc1)N1N=C(c2ccc3c(c2)OCO3)CC1(O)c1cc(F)c(Cl)cc1Cl (configuration not stated)
TGI [1]: 35.2 µM | TGI [2]: 51.2 µM | TGI [3]: 33.3 µM | TGI [11]: > 100 µM | TGI [12]: 52.2 µM | TGI [4]: 43.2 µM | TGI [6]: > 100 µM | TGI [7]: 84.5 µM | TGI [8]: > 100 µM | TGI [9]: > 100 µM | TGI [10]: 49.8 µM

COC(=O)C1CCCN1C(=O)OC(C)(C)C (configuration not stated)
TGI [1]: > 100 µM | TGI [2]: > 100 µM | TGI [3]: > 100 µM | TGI [11]: > 100 µM | TGI [4]: > 100 µM | TGI [5]: > 100 µM | TGI [6]: > 100 µM | TGI [7]: > 100 µM | TGI [8]: > 100 µM | TGI [9]: > 100 µM | TGI [10]: > 100 µM

CN(C)C1(c2cc3ccccc3s2)CCCCC1
TGI [1]: 49.8 µM | TGI [2]: 80.4 µM | TGI [3]: > 100 µM | TGI [11]: > 100 µM | TGI [12]: 0.0658 µM | TGI [5]: 60.6 µM | TGI [6]: > 100 µM | TGI [7]: > 100 µM | TGI [8]: > 100 µM | TGI [9]: > 100 µM | TGI [10]: 52 µM

COC(=O)[C@@H](NC(=O)c1ccc(CNC(=O)/C(C)=C/c2ccccc2)cc1)C(C)C
TGI [1]: > 100 µM | TGI [2]: 39 µM | TGI [3]: > 100 µM | TGI [11]: > 100 µM | TGI [4]: > 100 µM | TGI [5]: > 100 µM | TGI [6]: > 100 µM | TGI [7]: > 100 µM | TGI [8]: > 100 µM | TGI [9]: > 100 µM | TGI [10]: > 100 µM

Nc1nc(N)c2nc(CNc3ccc(C(=O)NC(CCNC(=O)c4ccccc4C(=O)O)C(=O)O)cc3)cnc2n1 (configuration not stated)
TGI [1]: > 100 µM | TGI [2]: > 100 µM | TGI [3]: > 100 µM | TGI [11]: > 100 µM | TGI [12]: > 100 µM | TGI [4]: > 100 µM | TGI [6]: > 100 µM | GI50 [7]: 0.00628 µM | TGI [7]: > 100 µM | GI50 [8]: 0.0453 µM | TGI [8]: > 100 µM | TGI [9]: > 100 µM | GI50 [10]: 0.169 µM | TGI [10]: > 100 µM
